According to patent publication US11291620B2, “Avobenzone-dendrimer conjugates” (NEW YORK UNIVERSITY, priority 2018, dated 2022):

Experiments:
[1] = UV decay / UV stability: change of absorbance under UV lamp over four hours; assay type: physicochemical; conditions: ethyl acetate, UV lamp 365 nM, peak at 357 nm, triplicate, average
Description: Avobenzone and the avobenzone conjugates were each dissolved in ethyl acetate, unless otherwise noted, and sealed in airtight quartz cuvettes. […] The avobenzone decay curves were run in triplicate and extra decay curves run in duplicate. UV stability experiments were run in triplicate in ethyl acetate (Mturi et al., J. Photochem. […] Unlike isopropanol, this solvent is known to encourage degradation and was chosen so that the experimental time scales would be similar to the time scale of sun exposure in vivo. Due to FDA regulations, all commercial sunscreens are labeled with instructions to reapply every two hours. The avobenzone systems were tested over four hours, double that time. The avobenzone, avobenzone linker, or avobenzone-dendrimer conjugate was dissolved in a small amount of isopropanol. In each study 90 μL of the stock solution was added to 3 mL of ethyl acetate and sealed in an airtight quartz cuvette. The initial absorptions were measured and the samples were sealed in quartz cuvettes and left under a UV lamp emitting at 365 nM. The absorption profile was measured at regular intervals.

[2] = UV-Vis calibration: molar attenuation coefficient at 357 nM in isopropanol; assay type: physicochemical; conditions: run in triplicate, per mole of compound or dendrimer conjugate
Description: Avobenzone and the avobenzone conjugates were each dissolved in isopropanol and the titrations were run in triplicate to calculate extinction coefficients for each conjugate.
UV analysis was run on each conjugate to test the absorbance and degradation profile of each compound. The linker and scaffold must not shift the UV absorbance profile of the avobenzone if it is to be used as an additive in sunscreen formulations. Otherwise, it might no longer be active as a UV-A filter. UV calibrations were run for free avobenzone, avobenzone with linker, and each class and generation of dendrimer-avobenzone conjugate to compare the modified molecules to the original under the same conditions.
The molar attenuation coefficient for each compound was calculated at 357 nM, the absorption maximum in the UVA-1 range. […] Additionally, no shift was observed after ligation to the dendrimer scaffolds.
Extinction coefficient curves were taken in isopropanol, a protic solvent known to stabilize avobenzone under UV irradiation, allowing the curve to be run on a single sample of avobenzone per curve without loss of activity (Mturi et al., J. Phoochem. Pholobiol. 200:410-20 (2008), which is hereby incorporated by reference in its entirety).

| SMILES | final absorbance as % of the initial absorbance [1] [%] | molar attenuation coefficient (for the compound / conjugate) [2] |
| --- | --- | --- |
| COc1ccc(C(=O)C(CCCCCCCCCCCO)C(=O)c2ccc(C(C)(C)C)cc2)cc1 (stereo not shown) [avobenzone with linker] | 108±1.8 | 2,899 M^−1 cm^−1 |
| COc1ccc(C(=O)CC(=O)c2ccc(C(C)(C)C)cc2)cc1 [bare avobenzone, 4-Tert-butyl-4′-methoxydibenzoylmethane] | 90.7±1.4 | 1,039 M^−1 cm^−1 |
